Laboratory results from BindingDB's records for doi:10.3109/14756360902888200 (Chung Shan Medical University Hospital, 2010).

Molecular target: Carboxylic ester hydrolase (Equus caballus, UniProt Q9N1N9)
Assay: BChE Inhibition Assay
Conditions: pH 7; 25 °C
Protocol: BChE inhibitions by the carbamate inhibitors were assayed by the Ellman method [Ellman et al., Biochem. Pharm., 7:88-95]. BChE-catalyzed hydrolysis of BTCh in the presence of the carbamate inhibitors and DTNB was followed continuously at 410 nm on a UV-visible spectrometer. The temperature was maintained at 25.0°C by a refrigerated circulating water bath. All inhibition reactions were performed in sodium phosphate buffer (1 mL, 0.1 M, pH 7.0) containing NaCl (0.1 M), acetonitrile (2% by volume), triton X-100 (0.5% by weight), substrate (ATCh for AChE or BTCh for BChE) (50 μM), DTNB, and varying concentrations of inhibitor. Requisite volumes of stock solution of substrateand inhibitors in acetonitrile were injected into the reaction buffer via a pipet. BChE was dissolved in sodium phosphate buffer (0.1 M, pH 7.0).

Sequence of Carboxylic ester hydrolase (Q9N1N9 whole entry): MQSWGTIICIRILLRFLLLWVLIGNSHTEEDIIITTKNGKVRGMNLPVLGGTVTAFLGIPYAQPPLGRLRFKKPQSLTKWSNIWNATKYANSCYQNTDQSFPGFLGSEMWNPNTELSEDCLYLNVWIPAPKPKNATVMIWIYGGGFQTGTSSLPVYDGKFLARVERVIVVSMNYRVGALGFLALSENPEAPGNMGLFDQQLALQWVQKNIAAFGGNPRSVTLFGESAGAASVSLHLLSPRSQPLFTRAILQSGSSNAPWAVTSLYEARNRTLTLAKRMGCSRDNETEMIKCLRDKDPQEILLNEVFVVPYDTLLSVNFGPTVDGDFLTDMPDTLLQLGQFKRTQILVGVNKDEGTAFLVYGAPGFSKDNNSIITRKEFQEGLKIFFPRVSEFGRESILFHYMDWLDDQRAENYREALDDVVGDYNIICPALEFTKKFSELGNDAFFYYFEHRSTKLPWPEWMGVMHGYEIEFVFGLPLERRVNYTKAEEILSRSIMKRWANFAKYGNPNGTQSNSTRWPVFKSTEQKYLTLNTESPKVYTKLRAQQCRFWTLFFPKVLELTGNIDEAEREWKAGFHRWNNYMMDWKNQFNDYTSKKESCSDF

Row | Compound | Ki [nM]
1 | CCCCNC(=O)OC1CC2CCC1C2 [(S)-(-)-endo-2-norbornyl-N-n-butylcarbamate] | 2
2 | CCCCNC(=O)OC1CC2CCC1C2 [(R)-(+)-exo-2-norbonyl-N-n-butylcarbamate] | 11
3 | CCCCNC(=O)OC1CC2CCC1C2 [(S)-(-)-exo-2-norbonyl-N-n-butylcarbamate] | 50
